# Laboratory results published in patent US10329243B2, “Biphenyl derivative and uses thereof” (XI'AN LIBANG PHARMACEUTICAL CO., LTD, priority 2015, dated 2019).
# Key:
# Type in all cases: in vivo, SD rats
# [1] = system: Fas; assay: Fas determination (immunohistochemical method), cerebral ischemic reperfusion MCAO model
# Experimental: (§1) Rats were intraperitoneally injected with 10% chloral hydrate 350 mg/kg after anesthesia and opened up at the center of the neck in accordance with the Zea Longa modified method. The right common carotid artery was separated, and the right external carotid artery branches was ligated. A small opening was made at the distal end of the external carotid artery, and a previously prepared thread was inserted through the common carotid artery and the external carotid artery bifurcation into the internal carotid artery, till the anterior end of the middle cerebral artery, with an immersed depth of 18 to 19 mm. The thread was then secured, and the wound was sutured layer by layer. After the operation, the rats were placed in a clean incubator to wake up. […] The sham operation group, the ischemic reperfusion group, and the Example groups were prepared strictly according to the requirements of the cerebral ischemic reperfusion model, while in the sham operation group the thread was put only into the external carotid artery. The animals were allowed to eat and drink freely after waking up. After 2 h, the thread was pulled out to achieve reperfusion. The sham operation group, the ischemic reperfusion group, and the Example groups were administered intravenously the aqueous solution of the biphenyl derivatives in PEG400 at 40 mg/kg (40 mg/kg means that 40 mg of the test compound per kg of the body weight of rats) 30 min before reperfusion and 12 h after reperfusion, respectively. The sham operation group and the ischemic reperfusion group were injected with the same amount of blank PEG400 aqueous solution at the same time point.
# (§2) 24 hours after reperfusion, 8 rats in each group were sacrificed by decapitation, the brain was removed, rinsed with PBS (pH 7.4) at −20° i for 20 min, evenly sliced (with a thickness of 2 mm), stained in a 2% TTC solution at 37°% in the dark for 30 min, fixed in 10% formalin for 24 h, and photographs were taken to analyze the infarct volume. A mixture of femoral arterial and venous blood was drawn from another 8 rats in each group under anesthesia, placed in a low temperature centrifuge at 4° C., centrifuged at 3500 r/min for 20 min, and the supernatant was stored in a refrigerator at −20° C. ready for SOD and MDA detection. After the blood was drawn, a perfusion needle was insert through the apex to the ascending aorta, and saline at 4° C. was rapid infused until the effluent became clear, followed by 4% paraformaldehyde phosphate buffer perfusion for fixation; the brain was removed by craniotomy, and brain tissues 2 mm in front of and behind the optic chiasma were taken and fixed, dehydrated, rendered transparent, impregnated in wax, and embedded. Brain continuous coronary tissue pathological sections were consecutively cut for later use. The remaining 8 rats in each group were sacrificed, brains were removed, the ischemic brain hemispheres were immediately taken on an ice tray, and 10% brain tissue homogenate was prepared for the detection of IL-1β and TNF-α.
# The immunohistochemical method was used for determination. Brain tissue paraffin sections were dewaxed into water, washed with 3% H2O2 to eliminate endogenous peroxidase activity, and rinsed with distilled water for 3 times. Sodium citrate buffer was used for antigen heat repairing, and blocking with calf serum was carried out at room temperature for 15 min; a rabbit anti-mouse Fas antibody was added dropwise, allowed to stand at 4°t overnight, biotinylated goat anti-rabbit IgG was added dropwise, and heated in a water bath at 37°a for 20 min. Washing with PBS for 5 min was continuously repeated 4 times, followed by staining with DAB and sufficient washing without counterstaining. The sections were then gradient dehydrated with alcohol, made transparent with toluene, sealed and fixed. Images were captured by a video camera under high-power optical microscope and inputted into the image analysis system for image analysis. […]
# [2] = system: brain cell apoptosis; assay: Apoptosis determination (TUNEL method), cerebral ischemic reperfusion MCAO model
# Experimental: as §1, §2
# The TUNEL method was used for determination. Brain tissue paraffin sections were dewaxed into water, washed with 3% H2O2 to eliminate endogenous peroxidase activity, and rinsed with distilled water for 2 min, repeated 3 times. A labelling solution was added for labelling at 37°t for 2 h, and a blocking solution was added for blocking at room temperature for 30 min. A biotinylated anti-digoxin antibody was added for a reaction at 37°a for 30 min, and SABC was added for a reaction at 37°a for 30 min. The sections were continuously rinsed with TBS for 5 min repeatedly for 4 times, stained with DAB, sufficiently washed, mild counterstained with Hematoxylin, gradient dehydrated with alcohol, made transparent with toluene, sealed and fixed. Five non-overlapping fields in semi-dark band were randomly selected from each section and inputted into the image analysis system.
# [3] = system: rats with permanent cerebral ischemia injury; assay: Relative infarct volume (TTC, imageJ), permanent cerebral ischemia model; details: for Relative Brain infarction volume (%): 40 mg/kg intravenously 30 min before insertion of thread and 12 h after embolism, 24 h after the embolism
# Experimental: as §1, with “the permanent cerebral ischemia model” for “the ischemic reperfusion”, “up.” for “up. After 2 h, the thread was pulled out to achieve reperfusion.”, “before insertion of thread” for “before reperfusion”, “after embolism,” for “after reperfusion,”
# as §2, with “the embolism,” for “reperfusion,”, “−20°i” for “−20° i”
# The infarct area in each brain section was analyzed and quantified by the imageJ image software, and the ratio of cerebral infarction volume in the overall brain volume was calculated.
# [4] = ischemic reperfusion rat model, edaravone 3 mg/kg
# [5] = ischemic reperfusion MCAO rats, 40 mg/kg intravenously, brain sections 24 h after reperfusion, gray scale inversely proportional to positive expression
# [6] = ischemic reperfusion MCAO rats, 40 mg/kg intravenously, brain sections 24 h after reperfusion, TUNEL, average of five fields
Compound,Relative Brain infarction volume (%) [3],"Fas average gray scale [1, 5]","Number of apoptotic cells [2, 6]",other results
"3,3′,5,5′-tetraisopropylbiphenyl-4,4′-bis(oxymethylene phosphate) [Example 3 group]",,,,"Fas average gray scale ([1]; rat, in vivo, iv, 40 mg/kg): 144.56 ± 6.32; Number of apoptotic cells ([2]; rat, in vivo, iv, 40 mg/kg): 25.14 ± 2.54"
"CC1=NN(c2ccccc2)C(=O)C1 [Edaravone injection, edaravone, reference compound]",,,,"Brain relative infarct volume (%) ([3]; edaravone 3 mg/kg): 31.29 ± 4.02 %; Fas average gray scale [1, 4]: 139.65 ± 2.05; Number of apoptotic cells [2, 4]: 28.6 ± 4.90"
"CC(=O)Oc1c(C(C)C)cc(-c2cc(C(C)C)c(O)c(C(C)C)c2)cc1C(C)C [Example 1 group, 4′-hydroxy-3,3′,5,5′-tetraisopropylbiphenyl-4-acetate]",,,,Relative Brain infarction volume (%) ([3]; 40 mg/kg): 24.71 ± 3.76 %
"CC(=O)Oc1c(C(C)C)cc(-c2cc(C(C)C)c(OC(C)=O)c(C(C)C)c2)cc1C(C)C [Example 2 group, 3,3′,5,5′-tetraisopropylbiphenyl-4′-diacetate]",27.92 ± 4.51 %,148.36 ± 5.33,24.65 ± 3.41,
"CC(C)c1cc(-c2cc(C(C)C)c(OC(=O)CCC(=O)O)c(C(C)C)c2)cc(C(C)C)c1O [Example 5 group, [4-(4′-hydroxy-3,3′,5,5′-tetraisopropylbiphenyl)oxy]-4-carbonyl butyric acid]",28.37 ± 5.02 %,148.02 ± 4.16,20.56 ± 4.29,
"CCCc1cc(-c2cc(CCC)c(O)c(C(C)C)c2)cc(C(C)C)c1O [Example 6 group, 4,4′-dihydroxy-3,3′-diisopropyl-5,5′-dipropylbiphenyl]",22.53 ± 4.62 %,155.33 ± 3.78,19.47 ± 5.02,
"CCCc1cc(-c2cc(CCC)c(O)c(CCC)c2)cc(CCC)c1O [Example 7 group, 4,4′-dihydroxy-3,3′,5,5′-tetrapropylbiphenyl]",21.39 ± 4.01 %,157.26 ± 4.05,20.28 ± 3.76,
"CC(C)c1cc(-c2cc(C(C)C)c(C(=O)O)c(C(C)C)c2)cc(C(C)C)c1O [Example 8 group, 4′-hydroxy-3,3′,5,5′-tetraisopropylbiphenyl-4-carboxylic acid]",29.74 ± 3.13 %,148.82 ± 7.62,24.81 ± 3.35,
"CC(C)c1cc(-c2cc(C(C)C)c(Cl)c(C(C)C)c2)cc(C(C)C)c1O [Example 9 group, 4-chloro-4′-hydroxy-3,3′,5,5′-tetraisopropylbiphenyl]",,,,"Fas average gray scale ([1]; rat, in vivo, iv, 40 mg/kg): 147.11 ± 5.61; Number of apoptotic cells ([2]; rat, in vivo, iv, 40 mg/kg): 25.47 ± 4.19"
CC(C)c1cc(-c2cc(C(C)C)c(OC=O)c(C(C)C)c2)cc(C(C)C)c1O [Example 10 group],26.46 ± 4.52 %,145.06 ± 4.08,22.18 ± 5.22,
"CC(C)c1cc(-c2cc(C(C)C)c(OC(=O)C(N)C(C)C)c(C(C)C)c2)cc(C(C)C)c1O (centres unmarked) [Example 11 group, 4′-hydroxy-3,3′,5,5′-tetraisopropylbiphenyl-2-amino-3-methylbutyrate]",28.98 ± 5.24 %,152.12 ± 6.17,24.19 ± 4.29,
"CC(=O)OC(C)Oc1c(C(C)C)cc(-c2cc(C(C)C)c(O)c(C(C)C)c2)cc1C(C)C (centres unmarked) [Example 12 group, Ethyl 1-(4′-hydroxy-3,3′,5,5′-tetraisopropylbiphenyl-4-oxo)acetate]",31.79 ± 5.94 %,144.26 ± 3.47,26.27 ± 5.37,
